Consider 2 compounds from patent US20130289014A1, “Combination therapy in treatment of oncological and fibrotic diseases” (BOEHRINGER INGELHEIM INTERNATIONAL GMBH, priority 2010, published 2013).

Experiment [1] has as its system Calu-6 xenografts (human NSCLC tumor cell line). Description: Calu-6 NSCLC subcutaneous xenograft, single agents and combination. The note with it: Calu-6, d40; large tumors, ca. 350 mm^3 at start of treatment. It is filed as in vivo, mice. The protocol: In order to analyse the anti-tumor effects of combining the inhibition of tumor angiogenesis by interfering with the VEGFR signalling cascade with the antitumor activity of inhibiting Aurora kinase B, the following in vivo experiment is performed. Nude mice carrying established subcutaneous Calu-6 xenografts (human NSCLC tumor cell line) are randomized and treated with either the Aurora B kinase inhibitor of this invention Compound X or BIBF 1120 alone or with the combination of both drugs. After termination of treatment the tumors on the control treated mice (black line with circles in FIG. 1) are in average about 1100 mm^3 in volume.
FIG. 1: Calu-6 NSCLC model, combination BIBF 1120+Compound X, schedule (cf. Drawings; control group: line with circles; BIBF 1120 treated group: line with rhombs; Compound X (AKI) treated group: line with triangles; Combo BIBF 1120+Compound X (AKI) treated group: line with squares).

For the next experiment, the target named is human Aurora B kinase (Homo sapiens, UniProt Q96GD4). The experiment is described as follows: Enzymatic kinase assay, Aurora B. It is filed as biochemical. The procedure:
(§1) Compound X was profiled in enzymatic kinase assays as well as in proliferation assays on various human cancer cell lines. Cell cycle status was assessed by DNA content analysis (Cellomics ArrayScan, FACScalibur). Histone H3 phosphorylation was determined by immunofluorescence (Cellomics ArrayScan). Apoptosis was detected by Western blotting for cleaved PARP and microscopic enumeration of DAPI-stained cells showing nuclear fragmentation. Senescent cells were identified by staining for SA-β-Gal activity.

A further experiment has as its target T1, Aurora A kinase (Homo sapiens, UniProt O14965).
T1 sequence (O14965 1-403): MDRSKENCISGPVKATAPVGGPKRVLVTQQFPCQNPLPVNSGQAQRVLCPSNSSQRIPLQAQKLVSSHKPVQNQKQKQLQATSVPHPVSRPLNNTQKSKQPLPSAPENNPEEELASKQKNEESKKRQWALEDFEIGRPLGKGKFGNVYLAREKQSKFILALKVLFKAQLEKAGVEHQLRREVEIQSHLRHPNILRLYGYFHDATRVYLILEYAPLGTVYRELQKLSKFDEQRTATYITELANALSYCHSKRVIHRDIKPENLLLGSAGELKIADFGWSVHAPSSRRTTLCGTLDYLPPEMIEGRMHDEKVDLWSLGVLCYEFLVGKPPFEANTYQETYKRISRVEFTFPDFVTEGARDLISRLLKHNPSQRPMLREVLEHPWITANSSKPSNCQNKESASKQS
The experiment is described as follows: Enzymatic kinase assay, Aurora A. It is filed as biochemical. The procedure: as §1

Another experiment deals with T2, Aurora C kinase (Homo sapiens, UniProt Q9UQB9).
T2 sequence (Q9UQB9 1-309): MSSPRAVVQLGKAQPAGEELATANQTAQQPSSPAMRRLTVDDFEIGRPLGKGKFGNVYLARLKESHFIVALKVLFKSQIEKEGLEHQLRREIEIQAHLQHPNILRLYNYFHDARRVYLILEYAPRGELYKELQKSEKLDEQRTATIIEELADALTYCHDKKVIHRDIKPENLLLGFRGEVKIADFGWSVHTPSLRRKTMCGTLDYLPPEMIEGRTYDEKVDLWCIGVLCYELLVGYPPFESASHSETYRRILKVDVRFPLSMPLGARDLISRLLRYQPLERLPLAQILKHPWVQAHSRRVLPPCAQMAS
The experiment is described as follows: Enzymatic kinase assay, Aurora C. It is filed as biochemical. The protocol: as §1

Experiment [2] deals with 46 additional kinases representative of the human kinome. Description: Panel of 46 additional kinases. The conditions noted are these: Compound at 1000 nM. It is filed as biochemical. The protocol:
as §1

The subject of the next experiment is human cancer cell lines. Description: Proliferation assays on human cancer cell lines. It is filed as cell-based. The conditions noted are these: >20 human cancer cell lines; read-out: EC50 for inhibition of proliferation. The protocol: as §1
Experiment [3] relates to histone H3 phosphorylation in NCI-H460 cells. The experiment is described as follows: Histone H3 phosphorylation by immunofluorescence (Cellomics ArrayScan). It is filed as cell-based, human. The protocol:
as §1

For experiment [4], the system named is NCI-H460 cells. The experiment is described as follows: Cell cycle status by DNA content analysis (polyploidy). The conditions noted are these: NCI-H460, within 48 h of treatment; increased from <5%. It is filed as cell-based, human. The protocol: as §1
Experiment [5] has as its system NCI-H460 cells. The experiment is described as follows: Apoptosis: cleaved PARP Western blot and nuclear fragmentation of DAPI-stained cells. It is filed as cell-based, human. The note with it: NCI-H460, after 72 h and 96 h of treatment. The protocol:
as §1

The subject of experiment [6] is NCI-H460 cells. Description: Senescence by SA-β-Gal staining. It is filed as cell-based, human. The note with it: NCI-H460, within 96 h; from <3%. The protocol:
as §1

The next experiment has as its system HCT 116 colon carcinoma. Description: HCT 116 colon carcinoma subcutaneous xenograft. It is filed as in vivo, mice. The note with it: for T/C: HCT 116. The protocol: (§2) BomTac:NMRI-Foxn1^nu mice were grafted subcutaneously with NCI-H460 non-small cell lung carcinoma (mutant KRAS, wild-type p53), HCT 116 colon carcinoma (mutant KRAS, wild-type p53) or BxPC-3 pancreas adenocarcinoma cells (wild-type KRAS, mutant p53). Treatment was initiated when the tumors had reached a volume of ˜50 mm^3. BI 811283 was injected intravenously once or twice weekly as a single bolus or b.i.d. Alternatively, the compound was administered once-weekly by a continuous 24 h infusion via subcutaneously implanted osmotic mini-pumps. Multiple dose levels and dosing schedules were evaluated.

Experiment [7] concerns NCI-H460 non-small cell lung carcinoma. Description: NCI-H460 non-small cell lung carcinoma subcutaneous xenograft. The note with it: for T/C: NCI-H460. It is filed as in vivo, mice. The protocol:
as §2

Experiment [8] relates to BxPC-3 pancreas adenocarcinoma. The experiment is described as follows: BxPC-3 pancreas adenocarcinoma subcutaneous xenograft. The conditions noted are these: for T/C: BxPC-3. It is filed as in vivo, mice. The procedure:
as §2

The test system of the next experiment is THP-1. Description: AML cancer model THP-1. It is filed as in vivo. The conditions noted are these: THP-1 AML model.
In the next experiment the test system is MV-4; 11. The experiment is described as follows: AML cancer model MV-4;11. The conditions noted are these: MV-4;11 AML model. It is filed as in vivo.
[9] abbreviates: 15 BID mg/kg, weekly dose 60 mg/kg, (qdx2)x6, i.v.

The structures appear in SMILES notation.

human Aurora B kinase, sequence (Q96GD4 whole entry, the tested form may be a part): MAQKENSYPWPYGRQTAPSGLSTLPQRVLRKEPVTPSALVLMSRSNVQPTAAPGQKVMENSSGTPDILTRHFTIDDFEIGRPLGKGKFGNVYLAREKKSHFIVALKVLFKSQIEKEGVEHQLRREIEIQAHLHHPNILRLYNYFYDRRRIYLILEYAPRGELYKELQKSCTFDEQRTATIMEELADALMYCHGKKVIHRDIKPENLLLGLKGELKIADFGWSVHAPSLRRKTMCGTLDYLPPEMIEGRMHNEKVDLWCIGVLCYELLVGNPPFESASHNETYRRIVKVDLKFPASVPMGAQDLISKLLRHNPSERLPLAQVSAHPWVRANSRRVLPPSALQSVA

In the case of `COC(=O)c1ccc2c(c1)NC(=O)/C2=C(\Nc1ccc(N(C)C(=O)CN2CCN(C)CC2)cc1)c1ccccc1` [BIBF 1120, 3-Z-[1-(4-(N-((4-methyl-piperazin-1-yl)-methylcarbonyl)-N-methyl-amino)-anilino)-1-phenyl-methylene]-6-methoxycarbonyl-2-indolinone], the “median T/C value” in experiment [1] was found to be 50%.

For orientation: IC50 means the concentration needed to halve the response being measured. The T/C is the ratio of treated to control. Regarding `CC(C)NC(=O)[C@H]1CCC[C@H]1Nc1nc(Nc2ccc(C(=O)N(C)C3CCN(C)CC3)cc2)ncc1C(F)(F)F` [Compound X], the IC50 against human Aurora B kinase turned out to be 9 nM; against Aurora A kinase, 70 nM; against Aurora C kinase it was 17 nM. Besides, the “kinases inhibited by more than 50%” value in experiment [2] is 7/46. For the same compound, in the experiment on human cancer cell lines, the EC50 fell in the range of 2 to 14 nM. The “time to inhibition of histone H3 phosphorylation” value in experiment [3] was < 1 h. Moreover, in the experiment on NCI-H460 cells [4], the “fraction of polyploid cells” value is > 80%. Moreover, the “cleaved poly (ADP-ribose) polymerase” value in the experiment on NCI-H460 cells [5] was “An increase of cleaved poly (ADP-ribose) polymerase”. In the experiment on NCI-H460 cells [5] (from <1%), the “fraction of cells with nuclear fragmentation” value amounted to 7%. The “senescent cells, fraction of the population” value with NCI-H460 cells [6] is reported as 25%. Also, the “effect on large tumors” value in the experiment on HCT 116 colon carcinoma (HCT 116, large tumors (350 mm^3)) is “regression of large tumors (350 mm^3) was induced”. The T/C is 2% with HCT 116 colon carcinoma (20 mg/kg, weekly dose 20 mg/kg, (q7d)x5, 24 h cont. inf.); 25% with HCT 116 colon carcinoma (30 mg/kg, weekly dose 60 mg/kg, (qdx2)x6, i.v.); 4% with HCT 116 colon carcinoma (setting [9]); 8% in the experiment with HCT 116 colon carcinoma (37.5 BID mg/kg, weekly dose 75 mg/kg, (q7d)x6, i.v.); 8% in experiment [7] (20 mg/kg, weekly dose 20 mg/kg, (q7d)x3, 24 h cont. inf.); 27% in experiment [7] (15 BID mg/kg, weekly dose 60 mg/kg, (qdx2)x3, i.v.). For the same compound, the T/C in [8] (20 mg/kg, weekly dose 20 mg/kg, (q7d)x4, 24 h cont. inf.) stood at 6%; in [8] (setting [9]) it was 17%. Also, in the experiment on HCT 116 colon carcinoma (HCT 116 tumors), the “histological examination of tumors” value is listed as “accumulation of enlarged, multinucleated cells”. The “phosphorylation of histone H3 in tumors (biomarker analysis)” value in the experiment with HCT 116 colon carcinoma (HCT 116 tumors, therapeutic doses) is listed as “inhibited phosphorylation of histone H3”. Besides, the “effect on tumor growth” value is “dose-dependent inhibition of tumor growth or tumor regression” in the experiment with HCT 116 colon carcinoma (colon carcinoma model, multiple cycles, total weekly doses of 20 to 75 mg/kg); “dose-dependent inhibition of tumor growth or tumor regression” in experiment [7] (non-small cell lung cancer model, multiple cycles, total weekly doses of 20 to 75 mg/kg); “dose-dependent inhibition of tumor growth or tumor regression” in experiment [8] (pancreas carcinoma model, multiple cycles, total weekly doses of 20 to 75 mg/kg). Besides, the T/C value in the experiment with THP-1 amounted to 7%; with MV-4; 11 it was 5%. Further, the “median T/C value” in experiment [1] is on record as 45%.
